Source: patent publication US11998014B1, “O-{1-[(3,5-dinitrobenzoyl)amino]propan-2-yl} (4-chlorophenyl)carbamothioate as an eco-friendly insecticidal agent against Spodoptera littoralis (boisd.)” (KING FAISAL UNIVERSITY, priority 2024, dated 2024)
Values after ≈ are worked out from the molar mass of the structure shown. Read-outs that look alike come from different tables or passages of the source.

Assays:
Spodoptera littoralis = assay: Insecticidal leaf dip bioassay on S. littoralis larvae (castor bean leaf discs); assay type: in vivo, Spodoptera littoralis (cotton leafworm, laboratory strain); details: for Toxicity index %: 72 hours, fenoxycarb's LC50 / compound's LC50 * 100; for LC50: Spodoptera littoralis, in Gossypium hirsutum, foliar, 72 h
Method: Five concentrations (200, 100, 50, 25, 12.5 ppm) were designed for this synthetic compound and the reference fenoxycarb's compound as the dynamic ingredients based on ppm via diluting the commercial formulation.
In this experiment, the synthetic compound was tested for its insecticidal bioactivity using the industry-standard leaf dip bioassay techniques. Preparation of the compound stocks to create […], 0.1 g of compounds 2 were dissolved in five mL of Dimethyl formamide & combined with 5 mL of distilled water. Until usage, the stocks were kept in a refrigerator. The target substance test results were noted & the concentrations needed to destroy 50% (LC50) of S. littoralis larvae were calculated. The target compound was employed in five different concentrations, and 0.1% Tween 80 was employed as a surfactant. Castor bean leaf discs (nine centimeters in diameter) were dipped in the concentration under test for ten seconds, then fed to 2th and 4th larvae, which were roughly the same size and housed in glass jars (five pound). Each action carried out 3 times with ten larvae each. The mortality equalized via Abbott's formula. Calculations of mortality setback line were measurably rummage via probity analysis. Harmfulness index was strongminded via sun equations. The mortality results of larval insect were estimated through employing probit analysis through a statistics (LDP-line) equation which estimate the LC50 values with 95% fiducially limits of lower, upper confidence limit and slope.

aquatic insects = details: cited from earlier work

SMILES | Toxicity index % (Spodoptera littoralis; 2nd instar larvae) | LC50 (mg/L) at 95% (Spodoptera littoralis; 2nd instar larvae, after 72 hours of treatment, leaf dip) | Toxicity index % (Spodoptera littoralis; 4th instar larvae) | LC50 (Spodoptera littoralis; 2nd instar larvae, after 72 hours of treatment, leaf dip, read-out: LC50 (mg/L) at 95%) | LC50 (Spodoptera littoralis; 4th instar larvae, after 72 hours of treatment, leaf dip, read-out: LC50 (mg/L) at 95%) | LC50 (Spodoptera littoralis; read-out: LC50 (mg/L) at 95%, 2nd instar larvae, after 72 hours of treatment, leaf dip) | LC50 (Spodoptera littoralis; read-out: LC50 (mg/L) at 95%, 4th instar larvae, after 72 hours of treatment, leaf dip) | LC50 (aquatic insects)
CC(CNC(=O)c1cc([N+](=O)[O-])cc([N+](=O)[O-])c1)OC(=S)Nc1ccc(Cl)cc1 (stereo not shown) [Compound 2, O-{1-[(3,5-dinitrobenzoyl)amino]propan-2-yl} (4-chlorophenyl)carbamothioate] | 47.52% | about 12.505 mg/L | 88.23% | 12.5 mg/L (≈ 28.5 µM) | ~67.9 mg/L (≈ 155 µM) | – | – | –
CCOC(=O)NCCOc1ccc(Oc2ccccc2)cc1 [fenoxycarb] | 100% | – | 100% | – | – | 5.94 mg/L (≈ 19.7 µM) | 59.9 mg/L (≈ 199 µM) | –
CCc1ccc(C(=O)NN(C(=O)c2cc(C)cc(C)c2)C(C)(C)C)cc1 [tebufenozide] | – | – | – | – | – | – | – | 100 to 1000 µg/mL
